Experimental data: patent US12296024B2, “Modified zinc oxide nanocomposite, antibiotic composition comprising the same, and combination preparation with the same” (UIF (University Industry Foundation), Yonsei University, priority 2021, dated 2025)

System: Aspergillus spores
Assay: Effect of ions on fungal growth
Type: cell-based
Conditions: 1000 Aspergillus spores/dish, 37° C., day 3 of culture, FIG. 8B
Procedure: To investigate the effect of ions on fungal growth, salt solutions were added at a high molecular concentration (0.1 M, 10 μL) and a low molecular concentration ([…], 10 μL) and fungi were cultured at 37° C. under conditions of 1000 Aspergillus spores/dish. The results are illustrated in FIG. 8B based on the colonies on day 3 of culture.

Structure (SMILES) | effect of ions on fungal growth compared with Na+, Mg2+ or NH4+ ions
O=[N+]([O-])[O-].O=[N+]([O-])[O-].[Zn+2] [Zn(NO3)2] | greater effect
[Cl-].[Cl-].[Zn+2] [ZnCl2] | greater effect
